According to US7390783B2, “Charged phospholipid compositions and methods for their use” (Ottawa Heart Institute Research Corporation, priority 2000, dated 2008):
Entries after “also recorded” stand apart in the source; their conditions may differ.

What was measured:
HDL, LDL and VLDL = experiment: Lipoprotein surface charge after injection of PI or PC vesicles into rabbits (agarose gel electrophoresis); type: in vivo, rabbit; settings: intravenous injection of vesicles, fasted rabbit
Experimental: (§1) 1-palmitoyl-2-oleoyl-phosphatidylcholine (PC) and 1-palmitoyl-2-oleoyl phosphatidylinositol (PI) vesicles are prepared by drying to completion 40 μmol of each lipid into a 12×75 mm culture tube under N2. The lipids are solubilized in 3 mL of sterile saline comprising 150 mM sodium chloride (pH 7.2) by sonication for 1 minute at constant duty cycle. The vesicles are incubated at 37° C. for 10 minutes and then sonicated at a high output for 4 minutes in 10° C. water bath under N2. In order to determine the rate of clearance of cholesterol from the test animals (rabbits), a radioactive tracer is added to the vesicle preparations prior to injection into the rabbit. 200 μL of 1 μCi/μmL [^3H]-FC is dried into a 12×75 mm culture tube with 40 μmol of PI or POPC. 3 ml of PBS is added to the dried lipids and the mixture is sonicated as described above. This tracer/vesicle preparation is injected and then 5 min later, the PI or PC vesicles were injected and blood is sampled as described below.
(§2) Male New Zealand white rabbits (3.5-4.0 kg) are fasted for 12 hours prior to injection and remain fasted until after data for the final time point is taken. Rabbits have free access to water during this time. A catheter is inserted into the marginal ear vein and blood samples are collected into tubes containing 7.5% (K3) EDTA solution at the desired time points. A pre-injection blood sample is taken and the vesicle solution of either PI (n=4), or PC (n=2) or saline (n=1) is injected into the marginal ear vein. A sample of blood is removed at 10, 30 min, 1, 3, 6 and 24 h after the injection. All blood samples are placed on ice and then centrifuged at 3000 rpm for 15 min at 4° C. to separate the plasma. In order to ensure that lecithin:cholesterol acyl transferase (LCAT) is inhibited in the stored plasma, iodoacetamide (150 mM) is added to plasma samples as taught by Guerin et al. (1994).
Lipoprotein fractions are isolated by sequential ultracentrifugation (VLDL+IDL, d<1.019 g/mL; LDL, d=1.019-1.063 g/mL; and HDL, d=1.063-1.21 g/mL) as known to one of skill in the art, and lipoprotein lipid composition (total cholesterol, free cholesterol (FC), and triglyceride (TG) concentrations) are determined enzymatically using kits from Roche Diagnostic (Laval, PQ). An aliquot of each lipoprotein isolated is dialysed into PBS and its surface charge characteristics were determined by electrophoresis on pre-cast 0.5% agarose gels using the procedure of Sparks and Phillips (1992).
Referring now to FIG. 1, there is illustrated the effect of injection of PI and PC vesicles on the estimated surface potential of HDL, LDL, and VLDL proteins in vivo. […] PC, which is a neutral phospholipid, may also bind to the lipoproteins. However since PC is a neutral phospholipid, no significant change in the migration of the lipoproteins is observed. The increased migratory property of lipoproteins in a gel peaks following injection of PI and returns to normal by about 24 hours. […] Similarly, the VLDL fraction is estimated to have an initial surface potential of about −8.8 mV, which increases to about −11.2 mV after 10 minutes. LDL is estimated to have an initial surface potential of about −3.9 mV, and peaks about 60 min after the PI injection at about −8.0 mV.

[1] = biological target: T1, lecithin:cholesterol acyltransferase (LCAT) (Oryctolagus cuniculus, UniProt P53761); experiment: Plasma cholesterol esterification by LCAT after injection of PC or PI; type: in vivo, rabbit; settings: after injection of vesicles
T1 construct: endogenous LCAT activity is reduced to about 18% that of normal; from tissue; host or cells: plasma of PI- or PC-injected rabbits
T1 sequence (P53761 25-440): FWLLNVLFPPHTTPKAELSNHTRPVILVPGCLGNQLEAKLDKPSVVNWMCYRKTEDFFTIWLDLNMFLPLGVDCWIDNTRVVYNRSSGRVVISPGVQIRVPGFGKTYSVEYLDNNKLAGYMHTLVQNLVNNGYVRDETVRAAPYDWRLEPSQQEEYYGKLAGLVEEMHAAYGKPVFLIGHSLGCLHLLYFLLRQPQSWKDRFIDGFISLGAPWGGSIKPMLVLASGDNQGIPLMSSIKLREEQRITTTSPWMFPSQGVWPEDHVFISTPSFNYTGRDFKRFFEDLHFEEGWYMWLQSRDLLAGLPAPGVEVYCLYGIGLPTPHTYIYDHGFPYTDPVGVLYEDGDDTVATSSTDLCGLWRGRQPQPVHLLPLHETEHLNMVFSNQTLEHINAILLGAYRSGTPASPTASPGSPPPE
Experimental: Male New Zealand white rabbits (3.5-4.0 kg) are fasted for 12 hours prior to injection and remain fasted until after data for the final time point is taken. Rabbits have free access to water during this time. A catheter is inserted into the marginal ear vein and blood samples are collected into tubes containing 7.5% (K3) EDTA solution at the desired time points. A pre-injection blood sample is taken and the vesicle solution of either PI (n=4), or PC (n=2) or saline (n=1) is injected into the marginal ear vein. A sample of blood is removed at 10, 30 min, 1, 3, 6 and 24 h after the injection. All blood samples are placed on ice and then centrifuged at 3000 rpm for 15 min at 4° C. to separate the plasma. In order to ensure that lecithin:cholesterol acyl transferase (LCAT) is inhibited in the stored plasma, iodoacetamide (150 mM) is added to plasma samples as taught by Guerin et al. (1994). The effect of PI on LCAT activity is examined using plasma samples that are not treated with iodoacetamide. 400 μL aliquots of plasma for each time point are incubated for 30 min with 10 μCi of [^3H]-FC on filter paper discs (Dobiasova et al., 1991) at 37° C. and the reaction is terminated with the addition of 2 mL ethanol. Reaction products are extracted in hexane and the amount of [^3H] associated with CE and FC is determined by thin layer chromatography. […] However, endogenous LCAT activity is reduced to about 18% that of normal (PC injected control) after about 10 min post injection of PI. Also, PI injection reduces the fractional rate of cholesterol esterification from about 45% to about 8%, of initial values, per hour. […] To investigate the effect of PI on the production and transport of CE in the plasma, the amount of radioactive CE was measured at each time point (data not shown). […] Rather it appears that PI may modify intravascular cholesterol levels by mobilizing a cellular cholesterol pool.

[2] = test system: lipoprotein CE and FC in whole blood (red blood cells); experiment: Incubation of whole blood with PC or PI vesicles: lipoprotein CE and FC; type: cell-based, human
Experimental: Referring now to FIG. 4, there is graphically depicted the effect of PI or PC vesicles on lipoprotein CE and FC. Incubation of whole blood with PC vesicles results in a 60% increase in the CE content of the lipoproteins, while FC content is reduced by about 10%. […] Negatively charged phospholipids appeared to promote a reciprocal exchange of CE for FC between red blood cells and the lipoprotein particles. […] It has previously been taught that red blood cells cannot store CE and therefore utilize a membrane-bound CE hydrolase to maintain membrane FC levels. Without wishing to be bound by theory, the results therefore indicate that PI stimulates the degradation of lipoprotein CE.

[^3H]-FC in plasma = Clearance of [^3H]-FC from the blood of a rabbit; type: in vivo
Experimental: as §1, §2
Referring now to FIG. 5, there is shown the clearance of [^3H]-FC at various times after rabbits are injected with [^3H]-FC and either PI or PC vesicles. […] In comparison, rabbits injected with PC contain approximately 90% of the injected radioactivity after 1 h.

[3] = test system: faecal cholesterol output; experiment: Faecal cholesterol excretion after PI or PC injection; type: in vivo, rabbit; settings: injection into a rabbit
Experimental: Rabbits are injected with 40 μmol PI or PC vesicles containing 400 μCi […]. Animals are sacrificed at 30 min, and bile is aspirated from the gall bladder. In addition the livers are harvested, homogenized and tissue radioactivity determined. Sterol excretion in the faeces is measured similarly except that faecal cholesterol levels are measured over a time period of 96 hours. Referring now to FIG. 7, there is graphically depicted the effect of PI injection associated with sterol excretion. […] PC injection into a rabbit had no effect on cholesterol excretion, while PI injection enhanced faecal cholesterol output by about 300% at 2 days post injection. The increase in cholesterol output returned to normal by about day 4.

Human plasma = experiment: Plasma clotting time (prothrombin time); type: biochemical; settings: human plasma incubated with increasing amounts of vesicles, 24 h at 4° C.
Experimental: Referring now to FIG. 11, there is shown the effect of charged lipid on blood coagulation. Human plasma was incubated with various amounts of uncharged vesicles, phosphatidylcholine (PC) or anionic vesicles, phosphatidylinositol (PI), for 24 h at 4° C. Prothrombin time was then measured with the use of a commercially available kit.

lipoprotein lipase = biological target: T2, lipoprotein lipase (Homo sapiens, UniProt P06858); experiment: Lipid hydrolysis by lipoprotein lipase in plasma enriched with charged lipid; type: biochemical; settings: not shown
T2 sequence (P06858 28-475): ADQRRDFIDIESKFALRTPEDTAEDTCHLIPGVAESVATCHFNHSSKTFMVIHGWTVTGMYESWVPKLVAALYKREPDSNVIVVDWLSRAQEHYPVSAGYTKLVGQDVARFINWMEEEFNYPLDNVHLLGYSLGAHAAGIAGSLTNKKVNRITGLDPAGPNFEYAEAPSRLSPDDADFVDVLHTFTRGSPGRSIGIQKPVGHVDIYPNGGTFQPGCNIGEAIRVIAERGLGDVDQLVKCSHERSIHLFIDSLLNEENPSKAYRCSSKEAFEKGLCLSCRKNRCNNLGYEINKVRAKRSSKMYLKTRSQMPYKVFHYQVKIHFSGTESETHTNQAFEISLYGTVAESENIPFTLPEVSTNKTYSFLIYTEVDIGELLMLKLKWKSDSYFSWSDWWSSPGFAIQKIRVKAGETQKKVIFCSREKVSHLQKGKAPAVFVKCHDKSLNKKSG
Source text: Referring now to FIG. 10, there is shown the effect of lipoprotein charge on hepatic lipase. High density lipoprotein particles were enriched to contain various amounts of anionic or cationic lipids and then characterized as substrates for pure human hepatic lipase. Decreasing the net negative charge on the lipoprotein was associated with a reduction in the lipolytic activity of is hepatic lipase. Lipoprotein charge can also be used to regulate lipoprotein lipase. […] Lipid hydrolysis by hepatic or lipoprotein lipase can therefore be affected by alterations in the charge properties of plasma lipoproteins.

[4] = test system: VLDL, LDL and HDL in human plasma; experiment: Lipoprotein charge in human plasma incubated with PI or DOTAP vesicles; type: biochemical; settings: 24 h at 4° C.; for Lipoprotein Surface Charge LDL: no lipid 2.5; for Lipoprotein Surface Charge VLDL: no lipid 5.5; for Lipoprotein Surface Charge HDL: no lipid 11.8
Experimental: Different concentrations as shown below of negatively charged phospholipid (PI) or positively charged phospholipid (DOTAP) were added to human plasma and the surface charge on the lipoproteins was determined. The human plasma was incubated with PI or dioleoyl trimethylammonium-propane (DOTAP) vesicles for 24 h at 4° C. and then electrophoresed on 0.5% agarose. Lipoprotein charge was calculated from electrokinetic analyses.

HDL = experiment: Oral administration of PS: HDL charge in a human subject; type: in vivo
Experimental: Referring now to FIG. 9, there is graphically depicted the results of oral administration of 300 mg of PS to a human subject. Plasma samples were drawn before, and over a 24 hour period after, administration of PS. HDL charge was determined electrokinetically after electrophoresis of the plasma samples on 0.5% agarose. […] Thus, orally administered negatively charged lipids is absorbed intestinally and alters lipoprotein charge in the blood stream.

1-palmitoyl-2-oleoyl-phosphatidylcholine [PC, reference compound]
effect on lipoprotein net negative surface charge / migration of HDL, LDL and VLDL into agarose gel (HDL, LDL and VLDL): negligible effect; also recorded: did not significantly affect migration
effect on LCAT activity / cholesteryl esterification [1]: No appreciable change
increase in CE content of the lipoproteins [2]: 60%
reduction of lipoprotein FC content [2]: about 10%
[^3H]-FC in plasma, of the initial dose ([^3H]-FC in plasma; after about 1 h): approximately 90%
time to clear [^3H]-FC to a comparable baseline level ([^3H]-FC in plasma; rabbit, in vivo): > 6 h
effect on cholesterol excretion [3]: no effect
effect on plasma clotting time (prothrombin time) (Human plasma): no significant effect

CCCCCCCC/C=C\CCCCCCCC(=O)OCC(C[N+](C)(C)C)OC(=O)CCCCCCC/C=C\CCCCCCCC (centres unmarked) [DOTAP, dioleoyl trimethylammonium propane]
effect on lipid hydrolysis by lipoprotein lipase (lipoprotein lipase): inhibited lipid hydrolysis
Lipoprotein Surface Charge LDL ([4]; 5 mg/ml): 2.2 -mV
Lipoprotein Surface Charge VLDL ([4]; 5 mg/ml): 4.6 -mV
Lipoprotein Surface Charge HDL ([4]; 5 mg/ml): 11.4 -mV
Lipoprotein Surface Charge LDL ([4]; 10 mg/ml): 1.9 -mV
Lipoprotein Surface Charge VLDL ([4]; 10 mg/ml): 4.6 -mV
Lipoprotein Surface Charge HDL ([4]; 10 mg/ml): 11.2 -mV
Lipoprotein Surface Charge LDL ([4]; 50 mg/ml): 1.9 -mV
Lipoprotein Surface Charge VLDL ([4]; 50 mg/ml): 4.1 -mV
Lipoprotein Surface Charge HDL ([4]; 50 mg/ml): 11.0 -mV
Lipoprotein Surface Charge LDL ([4]; 100 mg/ml): 1.7 -mV
Lipoprotein Surface Charge VLDL ([4]; 100 mg/ml): 4.1 -mV
Lipoprotein Surface Charge HDL ([4]; 100 mg/ml): 10.9 -mV

phosphatidylserine [PS]
HDL charge (HDL; by 6 hours after 300 mg oral, from −10.9 mV before, 'over' = more negative): over −12 mV
HDL charge (HDL; by 24 hours after 300 mg oral): −11.4 mV
